Source: ChEMBL document CHEMBL1201862, “PubChem BioAssay data set” (2004)
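Dose response: 5 concentrations. Exposure: 48 h. Format: 96-well plates. Endpoint: linear interpolation; highest concentration if not reached. The concentration for 50% growth inhibition is given as GI50.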 The source made the active and inactive calls. Cut-off read from the data, not from the text of the source: active = GI50 up to about 1.1 µM and inactive = higher.

Assays:
Assay in all cases: NCI-60 cell line screen, 48 h
BT-549 = tested on: BT-549
COLO 205 = tested on: COLO 205
DU-145 = tested on: DU-145
HCC 2998 = tested on: HCC 2998
HCT-116 = tested on: HCT-116
HOP-92 = tested on: HOP-92
IGROV-1 = tested on: IGROV-1
KM12 = tested on: KM12
M14 = tested on: M14
MCF7 = tested on: MCF7
MDA-MB-231 = tested on: MDA-MB-231
Malme-3M = tested on: Malme-3M
NCI-H522 = tested on: NCI-H522
NCI/ADR-RES = tested on: NCI/ADR-RES
OVCAR-3 = tested on: OVCAR-3
RPMI-8226 = tested on: RPMI-8226
SF-268 = tested on: SF-268
SF-295 = tested on: SF-295
SN12C = tested on: SN12C
UO-31 = tested on: UO-31

Measured: GI50

CCOC(=O)CCCNC(=O)CCCCC(=O)N(C)C
inactive: BT-549 > 100 µM | COLO 205 > 100 µM | DU-145 > 100 µM | HCC 2998 > 100 µM | HCT-116 > 100 µM | HOP-92 > 100 µM | IGROV-1 > 100 µM | KM12 > 100 µM | M14 > 100 µM | MCF7 > 100 µM | MDA-MB-231 > 100 µM | Malme-3M > 100 µM | NCI-H522 > 100 µM | NCI/ADR-RES > 100 µM | OVCAR-3 > 100 µM | RPMI-8226 > 100 µM | SF-268 > 100 µM | SF-295 > 100 µM | SN12C > 100 µM | UO-31 > 100 µM
